Biological target: 2-methylisoborneol synthase (MIBS), full length (Streptomyces coelicolor, UniProt Q9F1Y6, E193A)
Assay: GC-MS of pentane-extracted products
Assay type: biochemical
Details: 60 μM substrate, 5 μM enzyme, 10 mM MgCl2, pH 7.0, 30 °C, 12 h

2-methylisoborneol synthase (MIBS), full length, sequence (Q9F1Y6 whole entry E193A): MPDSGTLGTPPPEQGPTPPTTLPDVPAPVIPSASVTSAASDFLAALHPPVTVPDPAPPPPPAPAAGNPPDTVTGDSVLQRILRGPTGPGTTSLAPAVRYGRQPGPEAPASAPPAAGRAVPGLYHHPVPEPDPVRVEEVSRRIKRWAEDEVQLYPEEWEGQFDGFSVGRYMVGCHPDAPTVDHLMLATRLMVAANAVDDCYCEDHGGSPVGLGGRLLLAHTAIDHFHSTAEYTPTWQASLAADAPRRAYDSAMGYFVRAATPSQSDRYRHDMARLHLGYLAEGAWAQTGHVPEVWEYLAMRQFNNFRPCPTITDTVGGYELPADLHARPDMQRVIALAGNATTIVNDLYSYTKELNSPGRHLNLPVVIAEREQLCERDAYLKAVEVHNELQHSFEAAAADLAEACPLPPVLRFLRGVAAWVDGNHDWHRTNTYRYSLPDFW

Compound: CC(C)=CCC/C(C)=C(\C)COP(=O)(O)OP(=O)(O)O [2MGPP, 2-methylgeranyl diphosphate]
- GC-MS of pentane-extracted products: overnight incubation of the E193A, E193L, and E193D mutants with 2MGPP

Source: article PMC3323742 (Biochemistry, 2012)
